Patent publication US7892769B2, “Processing of EphA4 polypeptide by γ-secretase activity” (Eisai R&D Management Co., Ltd., priority 2007, dated 2011)

Assays:
γ-secretase [1] = target: T1, γ-secretase (Homo sapiens, UniProt P49768); assay: Analysis of EphA4 processing in EphA4-HA-transfected 293/EBNA-1 cell strain (Western blotting, anti-HA antibody); type: cell-based; conditions: 50 nM Compound E, one day; cells expressing rat EphA4 with C-terminal HA tag; vs sample untreated with Compound E; FIG. 1
T1 construct: host or cells: 293/EBNA-1 (HEK293) cells; only the substrate EphA4-HA was transfected
Experimental: Whether or not EphA4 is a substrate for γ-secretase was evaluated using HEK293 cells expressing EphA4 with an HA tag added to its C-terminus, in the presence of a γ-secretase inhibitor. As the γ-secretase inhibitor, (2S)-2-{[(3,5-difluorophenyl)acetyl]amino}-N-[(3S)-1-methyl-2-oxo-5-phenyl-2,3-dihydro-1H-1,4-benzodiazepin-3-yl]propanamide (hereinafter, sometimes referred to as “Compound E”) (Alexis Biochemicals) was used.
293/EBNA-1 cell strain (Invitrogen) was cultured in 10% FEB (Hyclone)/DMEM (Invitrogen) under 5% CO2 at 37° C., followed by transfection thereinto of a gene encoding rat EphA4 with an HA tag added to its C-terminus with Lipofectamine 2000 (Invitrogen). After one day culture under the same conditions, 50 nM Compound E (Alexis Biochemicals) was added to the medium. Cells were cultured for another day under the same conditions. Then, the transfected HEK293 cells were collected with PBS (Sigma) and sonicated with a sonicator (Taitec VP-5S) to disrupt cells. Then, the quantity of protein was determined with Protein Assay Kit (BioRad). […]
First, the substrate for γ-secretase is cut off its extracellular domain by other protease. […] Since reactions proceed very quickly from the first cleavage to the final degradation by proteasome, the substrate is […] when detected by Western blotting.

γ-secretase [2] = target: T2, γ-secretase (Rattus norvegicus, UniProt P97887); assay: Analysis of EphA4 processing in primary culture of rat hippocampal neurons (Western blotting, anti-EphA4 antibody); type: cell-based; conditions: Compound E final concentration 50 nM, one week; endogenous EphA4; vs sample untreated with Compound E; FIG. 2
T2 construct: endogenous in cells; host or cells: primary culture of hippocampal neurons from embryonic day 18 SD rats (Charles River)
Experimental: Whether or not EphA4 is a substrate for γ-secretase was evaluated using a primary culture of rat hippocampal neurons in the presence of a γ-secretase inhibitor. As the γ-secretase inhibitor, (2S)-2-{[(3,5-difluorophenyl)acetyl]amino}-N-[(3S)-1-methyl-2-oxo-5-phenyl-2,3-dihydro-1H-1,4-benzodiazepin-3-yl]propanamide (Compound E) (Alexis Biochemicals) was used.
The hippocampus was isolated from embryonic day 18 SD rats (Charles River) and subjected to culture. Specifically, embryos were removed aseptically from pregnant rats under etherization. The brain was removed from each embryo and dipped in 20% FBS (Hyclone)/HBSS (Sigma). The hippocampus was collected from the thus obtained brain under a stereomicroscope. The collected hippocampus was treated in an enzyme solution containing 0.25% trypsin (Invitrogen) and 0.5 mg/ml DNase (Sigma) at 35° C. for 10 minutes to disperse cells. This enzyme reaction was terminated by adding 20% FBS (Hyclone)/HBSS (Sigma). Then, 2 ml of HBSS (Sigma) was added to the resultant cells. The HBSS-added cell mass was re-dispersed by gentle pipetting. The resultant neuron suspension was diluted with a medium and plated in 10 cm dishes at an initial cell density of 1.5×10^6 cells/dish. […] Then, cells were collected with PBS and subjected to quantitative determination of protein. […]

C[C@H](NC(=O)Cc1cc(F)cc(F)c1)C(=O)N[C@H]1N=C(c2ccccc2)c2ccccc2N(C)C1=O [Compound E, (2S)-2-{[(3,5-difluorophenyl)acetyl]amino}-N-[(3S)-1-methyl-2-oxo-5-phenyl-2,3-dihydro-1H-1,4-benzodiazepin-3-yl]propanamide]
accumulation of EphA4 C-terminal fragment (CTF) band (γ-secretase [1]): a band around 50 kDa (CTF) was accumulated specifically
accumulation of EphA4 C-terminal fragment (CTF) band (γ-secretase [2]): a band around 50 kDa (CTF) was accumulated specifically
